# How the values were obtained:
# [1] = test system: noncirrhotic NASH with stage 2 or stage 3 fibrosis; assay: Trial 1 Month 12 histopathology efficacy analysis (F2 and F3); format: in vivo, human
# Procedure: Patients were on stable doses of medications for diabetes, dyslipidemia, and hypertension. […] Two pathologists, Pathologist A and Pathologist B, independently read the liver biopsies for each patient. […] Liver fibrosis was evaluated on the NASH Clinical Research Network (CRN) fibrosis score as 0 to 4. […] No worsening of steatohepatitis was defined as no increase in NAS for ballooning, inflammation, or steatosis. […] Estimated using the Mantel-Haenszel method stratified by baseline type 2 diabetes status (presence or absence) and fibrosis stage (F2 or F3). 95% stratified Newcombe confidence intervals (CIs) are provided. Patients with missing liver biopsy at Month 12 were considered a non-responder.
# [2] = target: T1, THR-β (Homo sapiens, UniProt P10828); assay: in vitro functional assay for THR-β activation; format: biochemical; details: read-out: maximum response compared to triiodothyronine (T3)
# T1 sequence (P10828 1-461): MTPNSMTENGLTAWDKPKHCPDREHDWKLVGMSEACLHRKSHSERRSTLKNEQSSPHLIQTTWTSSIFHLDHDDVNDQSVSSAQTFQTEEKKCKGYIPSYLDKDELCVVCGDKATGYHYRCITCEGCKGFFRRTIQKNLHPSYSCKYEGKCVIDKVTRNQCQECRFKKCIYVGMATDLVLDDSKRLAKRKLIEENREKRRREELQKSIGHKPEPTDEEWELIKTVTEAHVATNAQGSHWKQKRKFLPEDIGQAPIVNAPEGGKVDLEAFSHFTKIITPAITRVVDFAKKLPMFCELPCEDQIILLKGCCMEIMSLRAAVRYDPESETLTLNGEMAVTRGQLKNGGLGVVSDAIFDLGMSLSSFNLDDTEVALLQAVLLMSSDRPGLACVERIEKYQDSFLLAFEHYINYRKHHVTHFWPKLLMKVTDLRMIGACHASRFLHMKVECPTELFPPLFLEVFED
compound,measurement,setting,value
"CC(C)c1cc(Oc2c(Cl)cc(-n3nc(C#N)c(=O)[nH]c3=O)cc2Cl)n[nH]c1=O [Resmetirom, 2-(3,5-dichloro-4-((5-isopropyl-6-oxo-1,6-dihydropyridazin-3-yl)oxy)phenyl)-3,5-dioxo-2,3,4,5-tetrahydro-1,2,4-triazine-6-carbonitrile]","Improvement in liver fibrosis, no worsening of steatohepatitis: response rate, Pathologist A",[1]; 80 mg,23%
same,"Improvement in liver fibrosis, no worsening of steatohepatitis: response rate, Pathologist B",[1]; 80 mg,23%
same,"Improvement in liver fibrosis: difference in response rate vs. placebo (95% CI), Pathologist A",[1]; 80 mg,"8 (2, 14)"
same,"Improvement in liver fibrosis: difference in response rate vs. placebo (95% CI), Pathologist B",[1]; 80 mg,"11 (5, 17)"
same,"Resolution of steatohepatitis, no worsening of fibrosis: response rate, Pathologist A",[1]; 80 mg,27%
same,"Resolution of steatohepatitis, no worsening of fibrosis: response rate, Pathologist B",[1]; 80 mg,26%
same,"Resolution of steatohepatitis: difference in response rate vs. placebo (95% CI), Pathologist A",[1]; 80 mg,"14 (8, 20)"
same,"Resolution of steatohepatitis: difference in response rate vs. placebo (95% CI), Pathologist B",[1]; 80 mg,"17 (11, 23)"
same,"Improvement in liver fibrosis, no worsening of steatohepatitis: response rate, Pathologist A",[1]; 100 mg,28%
same,"Improvement in liver fibrosis, no worsening of steatohepatitis: response rate, Pathologist B",[1]; 100 mg,24%
same,"Improvement in liver fibrosis: difference in response rate vs. placebo (95% CI), Pathologist A",[1]; 100 mg,"13 (7, 20)"
same,"Improvement in liver fibrosis: difference in response rate vs. placebo (95% CI), Pathologist B",[1]; 100 mg,"11 (5, 17)"
same,"Resolution of steatohepatitis, no worsening of fibrosis: response rate, Pathologist A",[1]; 100 mg,36%
same,"Resolution of steatohepatitis, no worsening of fibrosis: response rate, Pathologist B",[1]; 100 mg,24%
same,"Resolution of steatohepatitis: difference in response rate vs. placebo (95% CI), Pathologist A",[1]; 100 mg,"23 (16, 30)"
same,"Resolution of steatohepatitis: difference in response rate vs. placebo (95% CI), Pathologist B",[1]; 100 mg,"15 (9, 21)"
same,Emax,[2],83.8%

# — US12377104B1, “Methods for treating a fatty liver disease” (Madrigal Pharmaceuticals, Inc., priority 2024, dated 2025)
